# Measurements reported in patent US20170190705A1, “Compositions and Methods for Inhibiting BMP” (THE BRIGHAM AND WOMAN'S HOSPITAL, INC., priority 2014, published 2017).
# Tests used:
# Assay type in all cases: biochemical
# NEK2 = molecular target: T1, NEK2 (Homo sapiens, UniProt P51955); experiment: Kinome profiling NEK2; details: read-out: Inhibitory activity NEK2; for inhibition at 0.1 µM: 100 nM
# T1 sequence (P51955 1-445): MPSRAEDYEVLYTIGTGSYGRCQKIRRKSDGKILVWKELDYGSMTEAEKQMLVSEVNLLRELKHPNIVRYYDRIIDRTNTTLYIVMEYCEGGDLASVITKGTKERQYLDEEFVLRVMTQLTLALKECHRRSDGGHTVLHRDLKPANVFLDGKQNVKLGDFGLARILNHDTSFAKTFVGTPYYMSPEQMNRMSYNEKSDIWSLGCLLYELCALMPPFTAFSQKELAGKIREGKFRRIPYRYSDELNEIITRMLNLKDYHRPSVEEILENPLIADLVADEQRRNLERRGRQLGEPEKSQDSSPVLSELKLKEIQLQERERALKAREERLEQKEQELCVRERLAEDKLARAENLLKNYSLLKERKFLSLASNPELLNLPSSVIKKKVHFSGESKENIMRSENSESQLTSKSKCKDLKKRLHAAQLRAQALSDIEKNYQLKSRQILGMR
# Description: (§1) . The kinome-wide selectivity was determined following the methods previously reported by Mohedas et al., ACS Chem Biol 2013, 8, 1291-1302 and Sanvitale et al., PLoS One 2013, 8, e62721.
# LRRK2-G2019S = LRRK2-G2019S (Homo sapiens, UniProt Q5S007, G2019S); experiment: Kinome profiling LRRK2-G2019S; details: read-out: Inhibitory activity LRRK2-G2019S; for inhibition at 0.1 µM: 100 nM
# Description: as §1
# SGK1 = molecular target: T2, SGK1 (Homo sapiens, UniProt O00141); experiment: Kinome profiling SGK1; details: read-out: Inhibitory activity SGK1; for inhibition at 0.1 µM: 100 nM
# T2 sequence (O00141 1-431): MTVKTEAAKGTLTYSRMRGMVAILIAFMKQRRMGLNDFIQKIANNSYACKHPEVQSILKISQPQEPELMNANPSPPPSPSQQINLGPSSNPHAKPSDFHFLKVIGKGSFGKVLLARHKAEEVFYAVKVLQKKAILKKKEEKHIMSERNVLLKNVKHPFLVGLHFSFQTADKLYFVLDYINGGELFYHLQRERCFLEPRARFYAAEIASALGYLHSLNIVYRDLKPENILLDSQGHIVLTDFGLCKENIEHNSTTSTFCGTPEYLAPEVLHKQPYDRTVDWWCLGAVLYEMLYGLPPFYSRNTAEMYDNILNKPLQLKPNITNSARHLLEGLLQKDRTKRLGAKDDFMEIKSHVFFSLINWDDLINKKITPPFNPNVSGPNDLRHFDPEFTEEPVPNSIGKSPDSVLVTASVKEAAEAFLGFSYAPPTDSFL
# Description: as §1
# LOK = LOK (Homo sapiens, UniProt O94804); experiment: Kinome profiling LOK; details: read-out: Inhibitory activity LOK; for inhibition at 0.1 µM: 100 nM
# Description: as §1
# EPHB4 = molecular target: T3, EPHB4 (Homo sapiens, UniProt P54760); experiment: Kinome profiling EPHB4; details: read-out: Inhibitory activity EPHB4; for inhibition at 0.1 µM: 100 nM
# T3 sequence (P54760 16-987): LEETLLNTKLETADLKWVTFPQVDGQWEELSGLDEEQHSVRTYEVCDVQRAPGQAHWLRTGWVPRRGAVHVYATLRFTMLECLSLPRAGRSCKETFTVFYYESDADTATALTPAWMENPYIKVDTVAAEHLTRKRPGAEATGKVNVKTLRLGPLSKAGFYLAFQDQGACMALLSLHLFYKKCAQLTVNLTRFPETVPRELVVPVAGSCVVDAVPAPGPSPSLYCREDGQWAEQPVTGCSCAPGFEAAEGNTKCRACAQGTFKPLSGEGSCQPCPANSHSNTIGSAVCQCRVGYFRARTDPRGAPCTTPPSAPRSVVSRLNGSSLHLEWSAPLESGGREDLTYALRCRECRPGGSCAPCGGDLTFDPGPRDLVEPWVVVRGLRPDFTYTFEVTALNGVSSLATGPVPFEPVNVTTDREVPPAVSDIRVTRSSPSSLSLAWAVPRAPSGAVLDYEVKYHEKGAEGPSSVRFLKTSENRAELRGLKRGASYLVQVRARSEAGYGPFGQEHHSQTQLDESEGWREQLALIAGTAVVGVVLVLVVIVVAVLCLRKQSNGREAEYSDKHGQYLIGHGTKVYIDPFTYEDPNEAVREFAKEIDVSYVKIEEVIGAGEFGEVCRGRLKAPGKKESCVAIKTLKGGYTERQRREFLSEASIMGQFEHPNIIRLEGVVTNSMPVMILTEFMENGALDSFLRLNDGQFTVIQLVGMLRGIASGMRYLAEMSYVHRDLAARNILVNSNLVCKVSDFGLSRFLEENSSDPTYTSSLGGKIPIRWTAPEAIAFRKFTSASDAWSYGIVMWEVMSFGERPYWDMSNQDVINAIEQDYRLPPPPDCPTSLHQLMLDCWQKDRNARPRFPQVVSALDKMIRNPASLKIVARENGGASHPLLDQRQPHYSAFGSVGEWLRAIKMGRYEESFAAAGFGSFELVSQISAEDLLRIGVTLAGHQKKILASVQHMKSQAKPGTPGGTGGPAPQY
# Description: as §1
# TIE2 = TIE2 (Homo sapiens, UniProt Q02763); experiment: Kinome profiling TIE2; details: read-out: Inhibitory activity TIE2; for inhibition at 0.1 µM: 100 nM
# Description: as §1
# RSK1 = RSK1 (Homo sapiens, UniProt Q15418); experiment: Kinome profiling RSK1; details: read-out: Inhibitory activity RSK1; for inhibition at 0.1 µM: 100 nM
# Description: as §1
# Sequence of TIE2 (Q02763 23-1124): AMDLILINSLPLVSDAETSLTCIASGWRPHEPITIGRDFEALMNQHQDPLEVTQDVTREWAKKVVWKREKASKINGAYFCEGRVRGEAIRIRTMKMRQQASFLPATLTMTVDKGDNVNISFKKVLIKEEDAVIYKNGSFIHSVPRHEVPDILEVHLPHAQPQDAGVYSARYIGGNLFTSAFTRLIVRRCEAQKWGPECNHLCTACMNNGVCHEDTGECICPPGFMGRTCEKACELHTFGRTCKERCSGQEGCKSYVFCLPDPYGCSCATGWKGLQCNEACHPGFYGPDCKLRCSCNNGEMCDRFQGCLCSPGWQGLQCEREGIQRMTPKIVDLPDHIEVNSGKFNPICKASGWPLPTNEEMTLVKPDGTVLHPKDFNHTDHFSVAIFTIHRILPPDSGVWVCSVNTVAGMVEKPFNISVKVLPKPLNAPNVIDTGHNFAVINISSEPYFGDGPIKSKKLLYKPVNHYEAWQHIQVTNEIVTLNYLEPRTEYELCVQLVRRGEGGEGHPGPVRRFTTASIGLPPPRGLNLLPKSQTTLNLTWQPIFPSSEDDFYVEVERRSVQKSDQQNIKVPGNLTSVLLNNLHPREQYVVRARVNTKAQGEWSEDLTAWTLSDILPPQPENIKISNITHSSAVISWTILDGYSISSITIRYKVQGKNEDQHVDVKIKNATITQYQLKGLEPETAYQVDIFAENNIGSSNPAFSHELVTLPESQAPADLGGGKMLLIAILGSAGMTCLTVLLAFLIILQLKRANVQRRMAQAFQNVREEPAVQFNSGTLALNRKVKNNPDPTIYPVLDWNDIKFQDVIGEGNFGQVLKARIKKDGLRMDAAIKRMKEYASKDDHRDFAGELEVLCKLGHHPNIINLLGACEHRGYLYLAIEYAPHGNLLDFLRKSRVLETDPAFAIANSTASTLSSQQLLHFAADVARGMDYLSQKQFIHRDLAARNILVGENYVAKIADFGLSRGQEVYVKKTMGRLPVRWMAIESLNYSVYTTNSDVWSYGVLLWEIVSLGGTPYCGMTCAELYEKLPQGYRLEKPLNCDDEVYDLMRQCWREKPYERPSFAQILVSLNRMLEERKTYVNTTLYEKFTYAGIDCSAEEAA
# Sequence of LOK (O94804 whole entry): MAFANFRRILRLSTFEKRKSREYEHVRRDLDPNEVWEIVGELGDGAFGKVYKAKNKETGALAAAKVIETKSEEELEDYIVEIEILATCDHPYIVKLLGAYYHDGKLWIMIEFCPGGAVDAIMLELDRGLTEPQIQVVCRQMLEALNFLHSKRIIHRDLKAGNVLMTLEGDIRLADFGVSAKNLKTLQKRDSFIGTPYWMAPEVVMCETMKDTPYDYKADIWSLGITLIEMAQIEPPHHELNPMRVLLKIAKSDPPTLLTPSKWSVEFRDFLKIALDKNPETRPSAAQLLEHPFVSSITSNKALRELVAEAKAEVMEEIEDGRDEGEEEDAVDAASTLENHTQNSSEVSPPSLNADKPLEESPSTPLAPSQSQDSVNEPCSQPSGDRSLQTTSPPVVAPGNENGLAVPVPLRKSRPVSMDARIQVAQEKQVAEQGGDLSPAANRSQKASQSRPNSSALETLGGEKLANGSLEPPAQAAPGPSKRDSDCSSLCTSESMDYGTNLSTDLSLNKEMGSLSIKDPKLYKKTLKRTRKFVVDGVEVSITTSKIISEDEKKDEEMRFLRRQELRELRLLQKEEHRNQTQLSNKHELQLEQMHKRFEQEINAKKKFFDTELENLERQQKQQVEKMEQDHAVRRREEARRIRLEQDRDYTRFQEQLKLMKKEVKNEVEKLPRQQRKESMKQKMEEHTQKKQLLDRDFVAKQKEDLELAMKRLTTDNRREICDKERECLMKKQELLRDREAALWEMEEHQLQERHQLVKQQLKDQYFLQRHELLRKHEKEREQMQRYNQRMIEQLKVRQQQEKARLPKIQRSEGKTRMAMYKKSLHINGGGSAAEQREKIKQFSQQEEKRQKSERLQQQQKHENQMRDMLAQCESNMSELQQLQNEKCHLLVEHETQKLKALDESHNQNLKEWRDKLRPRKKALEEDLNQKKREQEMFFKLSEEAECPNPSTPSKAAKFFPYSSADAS
# Sequence of RSK1 (Q15418 whole entry): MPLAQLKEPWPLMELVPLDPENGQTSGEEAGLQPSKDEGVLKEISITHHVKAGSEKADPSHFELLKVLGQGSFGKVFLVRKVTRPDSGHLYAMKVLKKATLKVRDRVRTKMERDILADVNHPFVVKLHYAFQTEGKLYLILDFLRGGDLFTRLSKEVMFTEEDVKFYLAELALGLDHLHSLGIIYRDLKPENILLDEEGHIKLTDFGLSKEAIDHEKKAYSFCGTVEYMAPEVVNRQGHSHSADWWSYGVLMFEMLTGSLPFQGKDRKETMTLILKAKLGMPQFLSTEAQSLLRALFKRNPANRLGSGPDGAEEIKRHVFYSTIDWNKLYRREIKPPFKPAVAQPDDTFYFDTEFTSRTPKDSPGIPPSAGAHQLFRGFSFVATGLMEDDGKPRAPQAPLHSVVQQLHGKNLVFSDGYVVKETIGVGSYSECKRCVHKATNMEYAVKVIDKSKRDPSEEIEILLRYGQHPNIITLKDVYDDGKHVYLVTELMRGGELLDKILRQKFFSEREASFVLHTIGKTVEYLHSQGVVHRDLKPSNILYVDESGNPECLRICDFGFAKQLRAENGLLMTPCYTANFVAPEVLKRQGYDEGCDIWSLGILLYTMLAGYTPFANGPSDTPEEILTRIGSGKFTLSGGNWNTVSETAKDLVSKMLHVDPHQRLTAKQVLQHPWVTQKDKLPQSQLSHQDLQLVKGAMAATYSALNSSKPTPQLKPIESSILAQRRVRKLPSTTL
SMILES,inhibition at 0.1 µM (NEK2),inhibition at 1 µM (NEK2),inhibition at 0.1 µM (LRRK2-G2019S),inhibition at 1 µM (LRRK2-G2019S),inhibition at 0.1 µM (SGK1),inhibition at 1 µM (SGK1),inhibition at 0.1 µM (LOK),inhibition at 1 µM (LOK),inhibition at 0.1 µM (EPHB4),inhibition at 1 µM (EPHB4),inhibition at 0.1 µM (TIE2),inhibition at 1 µM (TIE2),inhibition at 0.1 µM (RSK1),inhibition at 1 µM (RSK1)
"COc1cc(-c2cc(-c3ccc(N4CCNCC4)cc3)cnc2N)cc(OC)c1OC [Compound 15, 5-(4-(piperazin-1-yl)phenyl)-3-(3,4,5-trimethoxyphenyl)pyridin-2-amine]",4%,2%,16%,57%,3%,1%,32%,73%,7%,45%,1%,6%,1%,5%
"COc1cc(-c2cc(-c3ccc(N4CCNCC4)cc3)cnc2C)cc(OC)c1OC [Compound 10, 1-(4-(6-methyl-5-(3,4,5-trimethoxyphenyl)pyridin-3-yl)phenyl)piperazine]",3%,2%,4%,11%,2%,1%,9%,47%,5%,8%,1%,0%,1%,1%
